Experimental data as given in ChEMBL document CHEMBL4364283 (J Med Chem, 2019).
Activity calls are given as the source filed them. The rule behind the calls is not given here.

What was measured:
Menin [1] = molecular target: T1, Menin (Homo sapiens, UniProt O00255); assay: Inhibition of FAM-probe binding to Menin (unknown origin) after 60 mins by fluorescence polarization competitive binding assay
T1 sequence (O00255 whole entry): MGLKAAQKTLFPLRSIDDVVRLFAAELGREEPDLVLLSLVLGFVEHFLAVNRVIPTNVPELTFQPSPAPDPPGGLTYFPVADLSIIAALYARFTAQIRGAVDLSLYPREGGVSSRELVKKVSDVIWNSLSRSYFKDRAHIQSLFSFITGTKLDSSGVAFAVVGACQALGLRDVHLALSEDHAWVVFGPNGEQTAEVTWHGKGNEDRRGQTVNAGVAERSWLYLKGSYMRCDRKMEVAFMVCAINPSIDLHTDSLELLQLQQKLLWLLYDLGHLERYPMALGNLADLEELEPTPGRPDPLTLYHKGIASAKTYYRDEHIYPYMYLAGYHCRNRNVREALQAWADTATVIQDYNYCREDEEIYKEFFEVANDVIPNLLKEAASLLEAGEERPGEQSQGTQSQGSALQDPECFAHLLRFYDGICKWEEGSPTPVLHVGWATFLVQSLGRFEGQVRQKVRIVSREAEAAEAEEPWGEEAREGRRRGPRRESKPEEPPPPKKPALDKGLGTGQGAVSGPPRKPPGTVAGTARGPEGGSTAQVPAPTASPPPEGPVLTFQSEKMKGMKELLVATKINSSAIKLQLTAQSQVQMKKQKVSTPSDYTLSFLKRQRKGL

MV4-11 [2] = assay: cells; conditions: Homo sapiens, MV4-11, 96 h
Menin [3] = molecular target: T1, Menin; assay: Binding affinity to human Menin expressed in Escherichia coli Rosetta2 (DE3) cells by isothermal titration calorimetry
HL-60 = assay: Growth inhibition of human HL60 cells after 4 days by WST-8 assay; assay type: functional, cell-based; conditions: HL-60, 96 h
MOLM-13 = assay: Growth inhibition of human MOLM13 cells after 4 days by WST-8 assay; assay type: functional, cell-based; conditions: MOLM-13, 96 h
Menin [4] = molecular target: Menin (Homo sapiens, UniProt O00255); assay: Inhibition of fluorescent probe binding to Menin (2 to 610 residues containing deletion from 460-519) (unknown origin) after 60 mins by fluorescence polarization competitive binding assay
[5] = molecular target: T2, Menin/Histone-lysine N-methyltransferase MLL (Homo sapiens) (UniProt O00255+Q03164); conditions: 30 to 300 nM
Menin [6] = molecular target: T1, Menin
[7] = molecular target: T2, Menin/Histone-lysine N-methyltransferase MLL (Homo sapiens); conditions: 30 to 300 nM; remark: listed apart in the source
MV4-11 [8] = assay: Induction of differentiation in human MV4-11 cells assessed as increase in CD11b positive cells after 48 hrs by phycoerythrin staining-based flow cytometric analysis; assay type: functional, cell-based
Mus musculus [9] = assay: Downregulation of MEIS1 expression in tumors of mouse xenografted with human MV411 cells at 50 mg/kg , ip administered daily for 3 days and measured after 6 to 48 hrs by RT-qPCR analysis; assay type: functional, organism-based
[10] = molecular target: T2, Menin/Histone-lysine N-methyltransferase MLL (Homo sapiens); conditions: 100 nM
Mus musculus [11] = assay: Downregulation of Hoxa9 expression in tumors of mouse xenografted with human MV411 cells at 50 mg/kg , ip administered daily for 3 days and measured after 6 to 48 hrs by RT-qPCR analysis; assay type: functional, organism-based
[12] = molecular target: T2, Menin/Histone-lysine N-methyltransferase MLL (Homo sapiens); conditions: 100 nM; remark: listed apart in the source
MV4-11 [13] = assay: Induction of differentiation in human MV4-11 cells assessed as increase in CD11b positive cells at 0.03 to 3 uM after 24 hrs by phycoerythrin staining-based flow cytometric analysis; assay type: functional, cell-based
[14] = Solubility of the compound; assay type: physicochemical

T2 sequence (Q03164 1-2718 partner limits assumed, one chain of several): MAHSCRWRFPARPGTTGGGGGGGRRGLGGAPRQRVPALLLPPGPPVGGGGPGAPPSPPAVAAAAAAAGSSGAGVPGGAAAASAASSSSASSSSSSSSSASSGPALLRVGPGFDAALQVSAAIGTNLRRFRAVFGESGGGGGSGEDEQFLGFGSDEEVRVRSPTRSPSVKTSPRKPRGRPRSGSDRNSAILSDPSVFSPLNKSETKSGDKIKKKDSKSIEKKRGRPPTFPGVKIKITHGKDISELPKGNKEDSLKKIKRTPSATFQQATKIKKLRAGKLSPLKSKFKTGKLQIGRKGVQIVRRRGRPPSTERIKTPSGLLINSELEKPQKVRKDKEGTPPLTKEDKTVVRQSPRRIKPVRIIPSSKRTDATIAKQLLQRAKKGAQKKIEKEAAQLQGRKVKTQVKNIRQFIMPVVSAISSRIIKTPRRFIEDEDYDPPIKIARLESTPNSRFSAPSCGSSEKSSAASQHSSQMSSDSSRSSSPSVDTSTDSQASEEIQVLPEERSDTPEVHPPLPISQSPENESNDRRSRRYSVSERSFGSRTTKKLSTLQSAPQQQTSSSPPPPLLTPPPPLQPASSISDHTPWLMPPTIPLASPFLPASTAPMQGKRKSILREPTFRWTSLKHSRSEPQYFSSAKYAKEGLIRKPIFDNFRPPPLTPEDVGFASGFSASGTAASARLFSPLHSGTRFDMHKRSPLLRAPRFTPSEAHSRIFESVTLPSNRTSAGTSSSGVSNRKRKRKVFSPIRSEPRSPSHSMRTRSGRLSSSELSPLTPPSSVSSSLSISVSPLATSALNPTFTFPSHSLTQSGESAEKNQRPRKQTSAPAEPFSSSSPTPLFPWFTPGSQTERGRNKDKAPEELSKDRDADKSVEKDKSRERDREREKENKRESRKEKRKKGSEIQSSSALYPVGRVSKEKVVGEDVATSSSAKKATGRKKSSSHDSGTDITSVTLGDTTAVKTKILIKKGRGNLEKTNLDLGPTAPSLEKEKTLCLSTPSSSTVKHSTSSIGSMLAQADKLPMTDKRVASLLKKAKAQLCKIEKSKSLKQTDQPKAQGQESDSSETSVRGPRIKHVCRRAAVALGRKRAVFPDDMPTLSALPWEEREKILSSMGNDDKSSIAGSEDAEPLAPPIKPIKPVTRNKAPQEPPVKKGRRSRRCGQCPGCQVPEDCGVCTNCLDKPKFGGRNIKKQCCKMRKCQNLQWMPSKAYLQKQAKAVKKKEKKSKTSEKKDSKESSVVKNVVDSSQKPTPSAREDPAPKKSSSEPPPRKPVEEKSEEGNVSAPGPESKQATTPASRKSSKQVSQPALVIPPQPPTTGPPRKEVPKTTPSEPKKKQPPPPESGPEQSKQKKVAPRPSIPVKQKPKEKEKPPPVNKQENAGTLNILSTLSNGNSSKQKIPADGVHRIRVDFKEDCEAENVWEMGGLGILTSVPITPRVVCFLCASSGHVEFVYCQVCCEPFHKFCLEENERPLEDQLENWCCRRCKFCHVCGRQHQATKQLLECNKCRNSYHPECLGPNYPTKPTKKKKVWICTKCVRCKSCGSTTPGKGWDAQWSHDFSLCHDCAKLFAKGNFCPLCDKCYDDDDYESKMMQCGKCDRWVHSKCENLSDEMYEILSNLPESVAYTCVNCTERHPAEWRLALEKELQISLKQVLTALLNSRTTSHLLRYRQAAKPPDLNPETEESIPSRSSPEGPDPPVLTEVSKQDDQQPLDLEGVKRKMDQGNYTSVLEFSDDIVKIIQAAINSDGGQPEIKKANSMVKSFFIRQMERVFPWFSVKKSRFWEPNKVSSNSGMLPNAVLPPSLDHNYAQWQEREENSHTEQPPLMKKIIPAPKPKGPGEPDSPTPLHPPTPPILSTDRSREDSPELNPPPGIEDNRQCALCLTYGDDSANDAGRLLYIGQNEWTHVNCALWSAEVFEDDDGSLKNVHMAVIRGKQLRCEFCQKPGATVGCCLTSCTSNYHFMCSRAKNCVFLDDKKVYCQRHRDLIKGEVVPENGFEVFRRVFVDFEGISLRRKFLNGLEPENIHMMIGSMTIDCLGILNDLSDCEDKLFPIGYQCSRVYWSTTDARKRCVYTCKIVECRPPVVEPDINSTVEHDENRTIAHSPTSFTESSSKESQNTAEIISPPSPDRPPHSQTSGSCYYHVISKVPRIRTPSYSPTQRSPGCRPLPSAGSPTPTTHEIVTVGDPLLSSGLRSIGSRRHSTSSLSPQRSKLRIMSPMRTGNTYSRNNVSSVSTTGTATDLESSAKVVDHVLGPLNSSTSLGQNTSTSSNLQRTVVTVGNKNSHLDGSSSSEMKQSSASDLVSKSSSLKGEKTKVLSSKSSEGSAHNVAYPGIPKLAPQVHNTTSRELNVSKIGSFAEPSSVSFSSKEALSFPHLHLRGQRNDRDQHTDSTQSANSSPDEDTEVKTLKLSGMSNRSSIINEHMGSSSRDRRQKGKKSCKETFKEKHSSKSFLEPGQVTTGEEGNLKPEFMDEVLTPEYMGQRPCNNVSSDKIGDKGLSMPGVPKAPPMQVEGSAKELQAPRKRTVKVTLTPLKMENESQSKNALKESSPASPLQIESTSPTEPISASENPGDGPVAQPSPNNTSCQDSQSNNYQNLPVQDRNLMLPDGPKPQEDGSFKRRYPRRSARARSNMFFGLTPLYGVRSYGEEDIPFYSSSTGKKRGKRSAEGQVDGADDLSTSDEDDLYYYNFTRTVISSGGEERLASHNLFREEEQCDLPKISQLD
T2 sequence (Q03164 2719-3969 partner limits assumed, one chain of several): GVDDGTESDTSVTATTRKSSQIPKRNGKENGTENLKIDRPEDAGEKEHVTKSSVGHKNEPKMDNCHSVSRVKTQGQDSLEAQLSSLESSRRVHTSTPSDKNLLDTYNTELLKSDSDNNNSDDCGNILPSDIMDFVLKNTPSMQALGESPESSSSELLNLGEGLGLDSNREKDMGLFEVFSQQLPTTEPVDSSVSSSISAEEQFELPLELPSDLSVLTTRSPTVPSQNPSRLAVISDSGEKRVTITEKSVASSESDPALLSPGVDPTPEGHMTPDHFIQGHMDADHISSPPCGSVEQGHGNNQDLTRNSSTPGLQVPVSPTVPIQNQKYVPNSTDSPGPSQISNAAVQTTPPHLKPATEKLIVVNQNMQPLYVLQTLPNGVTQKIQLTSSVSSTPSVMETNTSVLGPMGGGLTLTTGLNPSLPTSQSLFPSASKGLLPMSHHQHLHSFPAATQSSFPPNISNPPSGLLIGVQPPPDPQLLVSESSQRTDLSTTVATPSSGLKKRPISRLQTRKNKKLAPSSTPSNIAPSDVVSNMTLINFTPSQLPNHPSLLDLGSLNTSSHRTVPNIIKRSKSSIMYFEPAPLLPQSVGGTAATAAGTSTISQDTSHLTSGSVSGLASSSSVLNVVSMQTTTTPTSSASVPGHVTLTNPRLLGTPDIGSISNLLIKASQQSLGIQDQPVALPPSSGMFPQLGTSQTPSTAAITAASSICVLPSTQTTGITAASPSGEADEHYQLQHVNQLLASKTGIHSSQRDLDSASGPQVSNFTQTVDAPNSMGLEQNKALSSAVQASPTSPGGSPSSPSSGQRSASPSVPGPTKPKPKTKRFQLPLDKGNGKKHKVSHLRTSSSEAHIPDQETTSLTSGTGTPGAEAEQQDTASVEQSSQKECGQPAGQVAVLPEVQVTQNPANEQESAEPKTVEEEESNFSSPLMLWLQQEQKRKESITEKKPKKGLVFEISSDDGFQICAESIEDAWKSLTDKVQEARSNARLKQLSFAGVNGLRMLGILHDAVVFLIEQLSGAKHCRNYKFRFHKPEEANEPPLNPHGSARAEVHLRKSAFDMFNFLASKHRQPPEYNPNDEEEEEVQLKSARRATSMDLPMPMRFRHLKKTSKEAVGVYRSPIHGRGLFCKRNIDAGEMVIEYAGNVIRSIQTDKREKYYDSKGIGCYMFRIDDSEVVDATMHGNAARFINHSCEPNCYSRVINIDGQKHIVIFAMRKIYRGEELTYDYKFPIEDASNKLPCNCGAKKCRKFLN

SMILES	IC50 (Menin [1]) [nM]	Ki (Menin [1]) [nM]	IC50 (MV4-11 [2]) [nM]	further results
CCCC(=O)O[C@H]1CCC[C@@H]1[C@](C#N)(c1ccccc1)C1CCN(CC2CN(c3ccc(C#N)cc3)C2)CC1 (mixture of isomers)	1100	350	10700	
N#Cc1cc2cc(CN3CCC(Nc4ncnc5sc(CC(F)(F)F)cc45)CC3)c(O)cc2n1Cc1cn[nH]c1				Kd (Menin [3]): 10 nM
O=S(=O)(c1ccc(N2CC(CN3CCC(C4(C5CCCC5)NCCc5ccccc54)CC3)C2)cc1)C1CCCCC1 (configuration not stated)	10	2.4	1100	
O=S(=O)(c1ccncc1)c1ccc(N2CC(CN3CCC(C4(C5CCCC5)CN(C5CCC5)Cc5ccccc54)CC3)C2)cc1 (configuration not stated)		2	900	
CC(=O)N[C@H]1CCC[C@@H]1[C@](C#N)(c1ccccc1)C1CCN(CC2CN(c3ccc(C#N)cc3)C2)CC1 (racemic)	102	32	3900	
CCN1Cc2ccccc2C(C2CCCC2)(C2CCN(CC3CN(c4ccc(S(=O)(=O)c5ccncc5)cc4)C3)CC2)C1 (configuration not stated)		1	840	
N#Cc1ccc(N2CCCC(CN3CCC(C4(C5CCCC5)NCCc5ccccc54)CC3)C2)cc1 (configuration not stated)	6600	2130		
CS(=O)(=O)c1ccc(N2CC(CN3CCC(C4(C5CCCC5)NCCc5ccccc54)CC3)C2)cc1 (configuration not stated)	143	45	4430	
O=S(=O)(c1ccccc1)c1ccc(N2CC(CN3CCC(C4(C5CCCC5)NCCc5ccccc54)CC3)C2)cc1 (configuration not stated)	20	5.6	500	
CC(=O)O[C@H]1CCC[C@@H]1[C@](C#N)(c1ccccc1)C1CCN(CC2CN(c3ccc(C#N)cc3)C2)CC1 (mixture of isomers)	40	12	1700	
N#Cc1ccc(OCCCN2CCC(C3(C4CCCC4)NCCc4ccccc43)CC2)cc1 (configuration not stated)			1400	
N#Cc1ccc(N2CCC(CN3CCC(C4(C5CCCC5)NCCc5ccccc54)CC3)C2)cc1 (configuration not stated)	88	27	2400	
CC(C)N1Cc2ccccc2C(C2CCCC2)(C2CCN(CC3CN(c4ccc(S(=O)(=O)c5ccncc5)cc4)C3)CC2)C1 (configuration not stated)		1.4	910	
CC(C)S(=O)(=O)c1ccc(N2CC(CN3CCC(C4(C5CCCC5)NCCc5ccccc54)CC3)C2)cc1 (configuration not stated)		21	1100	
O=S(=O)(c1ccc(N2CC(CN3CCC(C4(C5CCCC5)NCCc5ccccc54)CC3)C2)cc1)C1CCCC1 (configuration not stated)	17	4.6	900	
O=S(=O)(c1ccncc1)c1ccc(N2CC(CN3CCC(C4(C5CCCC5)CN(CC5CC5)Cc5ccccc54)CC3)C2)cc1 (configuration not stated)		1.4	1370	
CN1Cc2ccccc2C(C2CCCC2)(C2CCN(CC3CN(c4ccc(S(=O)(=O)c5ccncc5)cc4)C3)CC2)C1 (configuration not stated)	11			IC50 (HL-60): 2500 nM; IC50 (MOLM-13): 4300 nM
COC(=O)N[C@H]1CCC[C@@H]1[C@](C#N)(c1cccc(F)c1)C1CCN(CC2CN(c3ccc(S(=O)(=O)C4CN(C(=O)/C=C/CN(C)C)C4)cc3)C2)CC1				IC50 (Menin [4]): 3 nM
O=S(=O)(c1ccncc1)c1ccc(N2CC(CN3CCC(C4(C5CCCC5)CN(CC5COC5)Cc5ccccc54)CC3)C2)cc1 (configuration not stated)		7	1570	

SMILES	IC50 (Menin [1]) [nM]	Ki (Menin [1]) [nM]	IC50 (MV4-11 [2]) [nM]	further results
N#Cc1ccc(OCCCCN2CCC(C3(C4CCCC4)NCCc4ccccc43)CC2)cc1 (configuration not stated)	5000	1300	500	
CC(=O)O[C@@H]1CCC[C@H]1[C@](C#N)(c1ccccc1)C1CCN(CC2CN(c3ccc(C#N)cc3)C2)CC1 (relative stereo)			14300	
O=S(=O)(c1ccc(N2CC(CN3CCC(C4(C5CCCC5)NCCc5ccccc54)CC3)C2)cc1)C1CCC1 (configuration not stated)		11	1700	
O=S(=O)(c1ccc(N2CC(CN3CCC(C4(C5CCCC5)NCCc5ccccc54)CC3)C2)cc1)C1CC1 (configuration not stated)		7	1200	
CNC(=O)O[C@H]1CCC[C@@H]1[C@]1(C2CCN(CC3CN(c4ccc(S(=O)(=O)c5ccncc5)cc4)C3)CC2)CN(C)Cc2ccccc21 (mixture of isomers)	5	< 1		inhibition [5]: Active; Kd (Menin [6]): 1.4 nM; inhibition [7]: Active; Activity (MV4-11 [8]): Dose-dependent effect; Activity (Mus musculus [9]): Active; inhibition [10]: Active; Activity (Mus musculus [11]): Active; inhibition [12]: Active; Activity (MV4-11 [13]): Active
CCO[C@H]1CCC[C@@H]1[C@](C#N)(c1ccccc1)C1CCN(CC2CN(c3ccc(C#N)cc3)C2)CC1 (racemic)	5400	1700	4300	
O=S(=O)(c1ccncc1)c1ccc(N2CC(CN3CCC(C4(C5CCCC5)NCCc5ccccc54)CC3)C2)cc1 (configuration not stated)	17	4.6	1300	solubility [14]: Soluble
O=S(=O)(c1ccncc1)c1ccc(N2CC(CN3CCC(C4(C5CCCC5)CNCc5ccccc54)CC3)C2)cc1 (configuration not stated)		1.7	980	
N#Cc1ccc(N2CC(CN3CCC(C4(C5CCCC5)NCCc5ccccc54)CC3)C2)cc1 (configuration not stated)		11	1300	
N#Cc1ccc(N2CC(CN3CCC(C(C#N)(c4ccccc4)C4CCCC4)CC3)C2)cc1 (racemic)	3000	960	16900	
N#Cc1ccc(N2CCC(N3CCC(C4(C5CCCC5)NCCc5ccccc54)CC3)CC2)cc1 (configuration not stated)	650	207	6330	
CNC(=O)O[C@H]1CCC[C@@H]1[C@](C#N)(c1ccccc1)C1CCN(CC2CN(c3ccc(C#N)cc3)C2)CC1 (mixture of isomers)	11	2.7	300	
CCC(=O)O[C@H]1CCC[C@@H]1[C@](C#N)(c1ccccc1)C1CCN(CC2CN(c3ccc(C#N)cc3)C2)CC1 (mixture of isomers)	33	9.7	2200	
CCS(=O)(=O)c1ccc(N2CC(CN3CCC(C4(C5CCCC5)NCCc5ccccc54)CC3)C2)cc1 (configuration not stated)	34	10	2100	
O=S(=O)(c1ccncc1)c1ccc(N2CC(CN3CCC(C4(C5CCCC5)CN(CCN5CCOCC5)Cc5ccccc54)CC3)C2)cc1 (configuration not stated)		2.7	1550	
Cc1c(CN2CCC(Nc3ncnc4sc(CC(F)(F)F)cc34)CC2)ccc2c1cc(C#N)n2Cc1cn[nH]c1				Kd (Menin [3]): 10 nM
O=S(=O)(c1ccncc1)c1ccc(N2CC(CN3CCC(C4(C5CCCC5)CN(Cc5ccncc5)Cc5ccccc54)CC3)C2)cc1 (configuration not stated)		361	1330	
N#Cc1ccc(OCCN2CCC(C3(C4CCCC4)NCCc4ccccc43)CC2)cc1 (configuration not stated)	21200	5500	1800	
